# Laboratory results as given in patent publication US12410124B2 (priority 2019, dated 2025).
# What was measured:
# Assay type in all cases: in vivo
# hippocampus GFAP = test: Number of hippocampus astrocytes with GFAP positive expression in MPTP Parkinson's disease model mouse (immunohistochemistry); settings: for Positive cell number (astrocytes with GFAP positive expression): hippocampus, MPTP Parkinson's disease model mouse, immunohistochemistry
# Protocol: (§1) Neurotoxins can be used to establish PD animal models. Currently, 1-methyl-4-phenyl-1,2,3,6-tetrahydropyridine (MPTP) is the sole synthetic toxin which is recognized to induce PD symptoms in human and non-human primates and in mice. Using MPTP subacute modeling method, C57BL/6J male mice were intraperitoneally injected with MPTP 30 mg/kg, once a day for 5 consecutive days. The experiment animals were divided into blank control group, MPTP model group, and compound treatment group. For the […] compound treatment group, the compound was administrated by gavage for 21 consecutive days after the completion of modeling; for the MPTP model group, the normal saline was administrated by gavage for 21 consecutive days after the completion of modeling; and for the blank control group, the normal saline was first intraperitoneally injected for 5 days, and then administrated by gavage for 21 days.
# (§2) Neuron-glial cell network homeostasis disorder is an important factor for the selective and progressive death of substantia nigra dopaminergic neurons in PD. In the neurotoxic effect of MPTP, the excessive activations of microglial cells and astrocytes produce a variety of inflammatory cytokines and reactive oxygen species (ROS). These inflammatory factors and ROS amplify their respective toxicities and mediate malignant feedback loop, causing a cascade inflammation response and aggravating the pathological process of PD. CD11b and GFAP are the marker proteins for activations of microglial cells and astrocytes, respectively. Therefore, the effect of the target compounds on the activations of the microglial cells and astrocytes in the substantia nigra, hippocampus, and midbrain areas of MPTP-induced PD mice can be investigated, to explore the mechanism of the anti-PD effect of the target compounds by inhibiting the neuroinflammation.
# (§3) Half of experiment mice in each group were taken to separate the midbrain after perfusion and fixation. The tissue was trimmed, and the hippocampus area was taken to prepare paraffin sections. The GFAP immunohistochemical staining was performed for the statistics of the change in the number of astrocytes with GFAP positive expression. The experiment included blank control group, MPTP model group, positive control group (caffeic acid phenethyl ester, CAPE), prototype control group (styryl sulfone compounds 3B, 3C, 3D, and 3G, whose structures are shown as above), and target compound group.
# substantia nigra GFAP = test: Number of substantia nigra astrocytes with GFAP positive expression in MPTP Parkinson's disease model mouse (immunohistochemistry); settings: for Positive cell number (astrocytes with GFAP positive expression): substantia nigra, MPTP Parkinson's disease model mouse, immunohistochemistry
# Protocol: as §1, §2
# as §3, with “substantia nigra” for “hippocampus”
# midbrain TH = test: Midbrain TH expression in MPTP Parkinson's disease model mouse (western-blotting); settings: midbrain total protein, GAPDH internal reference, gavage 21 days after MPTP modeling
# Protocol: as §1
# The main cause of PD lies in the pathological changes in the substantia nigra-striatum projection system of the brain and the progressive degeneration and loss of dopaminergic neurons. Tyrosine hydroxylase (TH) is the first enzyme in the biosynthesis of catecholamine neurotransmitters, as well as the first rate-limiting enzyme in the dopamine synthesis. It plays an important role in the synthesis and metabolism of the neurotransmitter DA. The TH in PD animal models and patients has a wide range of abnormal changes, from the gene expression to the enzyme protein content and enzyme activity. The detection of the TH expression in the midbrain and substantia nigra of PD model mice can be used to evaluate the neuroprotective activity of the compound.
# Half of experiment mice in each group were taken to extract the total midbrain protein, and the change in the midbrain TH was determined by western-blotting using GAPDH as the internal reference. The experiment included blank control group, MPTP model group, positive control group (caffeic acid phenethyl ester, CAPE), prototype control group (styryl sulfone compounds 3B, 3C, 3D, and 3G, whose structures are shown as above), and target compound group.
# substantia nigra p-α-s = test: Substantia nigra p-α-s protein expression in MPTP Parkinson's disease model mouse (immunofluorescence); settings: percentage of mean intensity of blank control group, gavage 21 days after MPTP modeling
# Protocol: as §1
# Alpha-synuclein is an “unfolded protein” in its natural state. It exists in a monomeric form, and participates in the physiological functions such as the release of neurotransmitters, the establishment of synaptic junctions, and the regulation of synaptic plasticity. Under pathological conditions, more than 90% of alpha-synuclein is phosphorylated at serine of position 129 and converted into phosphorylated alpha-synuclein (p-α-s), thereby forming Lewy bodies. The formation of Lewy bodies is one of the main pathological manifestations and pathological mechanisms for Parkinson's disease, and plays an important role in the formation and development of PD. The detection of the p-α-s expression in the midbrain and substantia nigra of PD model mice can evaluate the neuroprotective activity of the compound.
# as §3, with “substantia nigra-striatum” for “hippocampus”, “p-α-s immunofluorescence” for “GFAP immunohistochemical”, “performed” for “performed for the statistics of the change”, “brain sections” for “number”, “mice in each group. […]” for “astrocytes with GFAP positive expression.”
# HO-1 = test: Midbrain HO-1 expression in MPTP Parkinson's disease model mouse (western blot); settings: for Expression (HO-1/GAPDH): midbrain, MPTP Parkinson's disease model mouse, western blot
# Protocol: as §1
# Oxidative stress is an important pathogenic mechanism of PD. Dopaminergic neurons are more sensitive to oxidative stress and are more susceptible to oxidative stress damage. Heme oxygenase (HO-1), a phase II enzyme, is also a well-known antioxidase. It plays an important protective role by catalyzing the conversion of free radicals into non-toxic products and increasing their water solubility to facilitate the elimination of free radicals, and maintain the redox balance in the body. It plays an important role in the process of protecting cells against oxidative stress damage. The activation of p38 protein phosphorylation has a negative regulatory effect on phase II enzymes. […] Using HO-1 as an indicator, the inhibitory effect of the target compounds on MPTP-induced oxidative stress damage in PD mice can be investigated.
# HO-1 is expressed in astrocytes, microglial cells, and neurons. The total proteins of the midbrain tissue of mice in each experiment group were extracted, to determine the expression of phase II enzyme HO-1 in the midbrain of mice by western blot using GAPDH as the internal reference. The experiment included blank control group, MPTP model group, positive control group (caffeic acid phenethyl ester, CAPE), prototype control group (styryl sulfone compounds 3B, 3C, 3D, and 3G, whose structures are shown as above), and target compound group.
SMILES,Positive cell number (astrocytes with GFAP positive expression) (hippocampus GFAP),Positive cell number (astrocytes with GFAP positive expression) (substantia nigra GFAP),Expression (TH/GAPDH) (midbrain TH),Expression (Immunofluorescence intensity %) (substantia nigra p-α-s) [%],Expression (HO-1/GAPDH) (HO-1),number of hippocampus astrocytes with GFAP positive expression compared with the styryl sulfone prototype compounds (hippocampus GFAP),number of substantia nigra astrocytes with GFAP positive expression compared with the styryl sulfone prototype compounds (substantia nigra GFAP),midbrain HO-1 expression compared with the styryl sulfone prototype compounds (HO-1)
"O=S(=O)(/C=C/c1ccc(O)c(O)c1)Cc1ccc(C(F)(F)F)cc1 [Compound 3B, (E)-4-{2-[(4-trifluoromethylphenyl)mesyl]ethenyl}benzene-1,2-diol, reference compound]",118 ± 8,121 ± 10,0.53 ± 0.03,236.55 ± 13.78,0.56 ± 0.03,–,–,–
"O=S(=O)(/C=C/c1ccc(O)c(O)c1)CCCc1ccccc1 [Compound 3C, (E)-4-{2-[(3-phenylpropyl)sulfonyl]ethenyl}benzene-1,2-diol, reference compound]",147 ± 4,121 ± 13,0.63 ± 0.03,132.98 ± 7.78,0.44 ± 0.05,–,–,–
"O=S(=O)(/C=C/c1ccc(O)c(O)c1)Cc1ccc(Cl)cc1 [Compound 3D, (E)-4-{2-[(4-chlorophenyl)mesyl]ethenyl}benzene-1,2-diol, reference compound]",106 ± 6,110 ± 9,0.93 ± 0.06,104.89 ± 7.56,1.03 ± 0.20,–,–,–
"CC(C)(C)c1ccc(CS(=O)(=O)/C=C/c2ccc(O)c(O)c2)cc1 [Compound 3G, (E)-4-{2-[(4-t-butylphenyl)mesyl]ethenyl}benzene-1,2-diol, reference compound]",130 ± 6,130 ± 6,0.45 ± 0.05,203.66 ± 8.37,0.51 ± 0.07,–,–,–
"CC(C)N(c1ccc(CCS(=O)(=O)/C=C/c2ccc(OC(=O)N(C)c3ccc(I)cc3)c(OCCOCc3ccccc3)c2)cc1)C(C)C [Compound A1-3, (E)-2-(2-benzyloxyethoxy)-4-{2-[4-(N,N-diisopropylamino)phenylethylsulfonyl]ethenyl}phenyl-N-(4-iodophenyl)-N-methylcarbamate]",55 ± 3,105 ± 6,0.93 ± 0.07,134.19 ± 11.28,0.66 ± 0.05,–,–,–
"CCN(CC)C(=O)Oc1ccc(/C=C/S(=O)(=O)Cc2ccc(C(F)(F)F)cc2)cc1OC(=O)N(CC)CC [Compound B1-1, (E)-4-{2-[(4-trifluoromethylphenyl)mesyl]ethenyl}-1,2-phenylenebis(diethylcarbamate)]",64 ± 4,88 ± 5,0.92 ± 0.02,82.54 ± 9.34,0.90 ± 0.10,significantly lower,significantly lower,significantly higher
"CCN(CC)C(=O)Oc1ccc(/C=C/S(=O)(=O)CCCc2ccccc2)cc1OC(=O)N(CC)CC [Compound C1-1, (E)-4-[2-(3-phenylpropylsulfonyl)ethenyl]-1,2-phenylenebis(diethylcarbamate)]",78 ± 3,56 ± 4,1.20 ± 0.06,123.59 ± 8.25,0.88 ± 0.09,significantly lower,significantly lower,significantly higher
"CCN(CC)C(=O)Oc1ccc(/C=C/S(=O)(=O)Cc2ccc(Cl)cc2)cc1OC(=O)N(CC)CC [Compound D1-1, (E)-4-{2-[(4-chlorophenyl)mesyl]ethenyl}-1,2-phenylenebis(diethylcarbamate)]",58 ± 5,64 ± 3,1.27 ± 0.05,42.52 ± 5.43,1.63 ± 0.12,significantly lower,significantly lower,significantly higher
"CC(=O)Oc1ccc(/C=C/S(=O)(=O)Cc2c(F)c(F)c(F)c(F)c2F)cc1OC(=O)NC(=O)c1ccc([N+](=O)[O-])c(C)c1 [Compound D5-4, (E)-2-[N-(3-methyl-4-nitrobenzoyl)carbamoyloxy]-4-{2-[(perfluorophenyl)mesyl]ethenyl}phenyl acetate]",59 ± 3,97 ± 5,1.19 ± 0.05,186.19 ± 11.02,0.93 ± 0.10,–,–,–
"CNC(=O)Oc1ccc(/C=C/S(=O)(=O)CC(Cl)c2ccc(Cl)c([N+](=O)[O-])c2)cc1O (centres unmarked) [Compound E2-2, (E)-4-{2-[2-chloro-2-(4-chloro-3-nitrophenyl)ethylsulfonyl]ethenyl}-2-hydroxyphenyl-N-methylcarbamate]",50 ± 5,102 ± 5,0.97 ± 0.03,128.26 ± 11.62,1.58 ± 0.08,–,–,–
